In brackets after ≈: the same amount, converted by molar mass.
Columns and labels:
Test in all cases: MIC, microbroth dilution
Assay type in all cases: cell-based
[1] = test system: Mycobacterium smegmatis ATCC700084; conditions: Mycolicibacterium smegmatis, ATCC700084; rifS; Middlebrook Broth plus ADC Enrichment, 37° C.; read-out: MIC
Protocol: (§1) Representative compounds were assayed for antimicrobial activity as follows: Minimum Inhibitory Concentrations (“MICs”) were determined by the microbroth dilution method as per NCCLS guidelines (National Committee for Clinical Laboratory Standards, 2000), except that all growth incubations were conducted at 37° C. Bacterial cultures were tested in the following bacteriological media: S. aureus, S. epidermidis, and E. coli in Cation-Adjusted Mueller-Hinton Broth, S. pneumoniae in THY Broth supplemented with 1 mg/mL catalase under 5% CO2 atmosphere, S. pyogenes in THY Broth, E. faecalis in BHI Broth, H. influenzae in BHI Broth supplemented with 0.75 μL of 1 mg/mL NAD and 150 μL of 1 mg/ml hematin per 5 mL, and M smegmatis in Middlebrook Broth plus ADC Enrichment.

[2] = test system: Enterococcus faecalis ATCC29212; conditions: rifS, BHI Broth, 37° C., read-out: MIC
Protocol: as §1

[3] = test system: Staphylococcus aureus ATCC29213; conditions: rifS, Cation-Adjusted Mueller-Hinton Broth, 37° C., read-out: MIC
Protocol: as §1

Row | MIC [1] [µg/mL] | MIC [2] [µg/mL] | MIC [3] [µg/mL] | SMILES
1 | 0.063 to 31 | 0.25 to 62 (≈ 0.304 to 75.4 µM) | 0.002 to 1.95 (≈ 0.00243 to 2.37 µM) | C=CCNC(=O)O[C@H]1[C@H](C)[C@H](O)[C@H](C)[C@@H](O)[C@@H](C)/C=C/C=C(/C)C(=O)NC2=C(N3CCOCC3)C(=O)c3c(c(O)c(C)c4c3C(=O)[C@@](C)(O/C=C/[C@H](OC)[C@H]1C)O4)C2=O [Example 8, 25-O-Desacetyl-(carbonyl-allylamino) 3-morpholino rifamycin S]
2 | 0.063 to 31 | 0.25 to 62 (≈ 0.21 to 52.2 µM) | 0.002 to 1.95 (≈ 0.00168 to 1.64 µM) | CO[C@H]1/C=C/O[C@@]2(C)Oc3c(C)c(O)c4c(c3C2=O)C(=O)C(N2CCOCC2)=C(NC(=O)/C(C)=C\C=C\[C@H](C)[C@H](O)[C@@H](C)[C@@H](O)[C@@H](C)[C@H](OC(=O)NCC(=O)NC2CCN(c3c(F)cc5c(=O)c(C(=O)O)cn(C6CC6)c5c3Cl)C2)[C@@H]1C)C4=O (stereo partly drawn) [Example 63]
3 | 0.063 to 31 | 0.25 to 62 (≈ 0.272 to 67.4 µM) | 0.002 to 1.95 (≈ 0.00217 to 2.12 µM) | CO[C@H]1/C=C/O[C@@]2(C)Oc3c(C)c(O)c4c(c3C2=O)C(=O)C(N2CCOCC2)=C(NC(=O)/C(C)=C\C=C\[C@H](C)[C@H](O)[C@@H](C)[C@@H](O)[C@@H](C)[C@H](OC(=O)NCCc2ccc(Cl)cc2)[C@@H]1C)C4=O [Example 38, 25-O-Desacetyl-(carbonyl-2-(4-Chloro-phenyl)-ethylamine) 3-morpholino rifamycin S]
4 | 0.063 to 31 | 0.25 to 62 (≈ 0.282 to 70 µM) | 0.002 to 1.95 (≈ 0.00226 to 2.2 µM) | CO[C@H]1/C=C/O[C@@]2(C)Oc3c(C)c(O)c4c(c3C2=O)C(=O)C(N2CCOCC2)=C(NC(=O)/C(C)=C\C=C\[C@H](C)[C@H](O)[C@@H](C)[C@@H](O)[C@@H](C)[C@H](OC(=O)NCCc2ccccc2)[C@@H]1C)C4=O [Example 25, 25-O-Desacetyl-(carbonyl-3-phenylethylamino) 3-morpholino rifamycin S]
5 | 0.063 to 31 | 0.25 to 62 (≈ 0.621 to 154 µM) | 0.002 to 1.95 (≈ 0.00497 to 4.85 µM) | Cc1cc2cc(NC(=O)c3ccc(N4CCNCC4)c(C(F)(F)F)c3)ccc2[nH]1 [Example 50, N-(2-Methyl-1H-indol-5-yl)-4-piperazin-1-yl-3-trifluoromethyl-benzamide]
6 | 0.063 to 31 | 0.25 to 62 (≈ 0.287 to 71.1 µM) | 0.002 to 1.95 (≈ 0.00229 to 2.24 µM) | CO[C@H]1/C=C/O[C@@]2(C)Oc3c(C)c(O)c4c(c3C2=O)C(=O)C(N2CCOCC2)=C(NC(=O)/C(C)=C\C=C\[C@H](C)[C@H](O)[C@@H](C)[C@@H](O)[C@@H](C)[C@H](OC(=O)NCc2ccccc2)[C@@H]1C)C4=O [Example 15, 25-O-Desacetyl (carbonyl-benzyl) 3-morpholino rifamycin S]
7 | 0.063 to 31 | 0.25 to 62 (≈ 0.278 to 68.9 µM) | 0.002 to 1.95 (≈ 0.00222 to 2.17 µM) | CO[C@H]1/C=C/O[C@@]2(C)Oc3c(C)c(O)c4c(c3C2=O)C(=O)C(N2CCOCC2)=C(NC(=O)/C(C)=C\C=C\[C@H](C)[C@H](O)[C@@H](C)[C@@H](O)[C@@H](C)[C@H](OC(=O)NCCCc2ccccc2)[C@@H]1C)C4=O [Example 24, 25-O-Desacetyl-(carbonyl-3-phenylpropylamino) 3-morpholino rifamycin S]
8 | 0.063 to 31 | 0.25 to 62 (≈ 0.281 to 69.7 µM) | 0.002 to 1.95 (≈ 0.00225 to 2.19 µM) | CO[C@H]1/C=C/O[C@@]2(C)Oc3c(C)c(O)c4c(c3C2=O)C(=O)C(N2CCOCC2)=C(NC(=O)/C(C)=C\C=C\[C@H](C)[C@H](O)[C@@H](C)[C@@H](O)[C@@H](C)[C@H](OC(=O)NCCCn2ccnc2)[C@@H]1C)C4=O [Example 11, 25-O-Desacetyl-(1-carbonyl-3-imidazol-1-yl-propylamine) 3-morpholino rifamycin S]
9 | 0.063 to 31 | 0.25 to 62 (≈ 0.204 to 50.7 µM) | 0.002 to 1.95 (≈ 0.00163 to 1.59 µM) | COc1c(N2CCC(NC3CCN(C(=O)O[C@H]4[C@H](C)[C@H](O)[C@H](C)[C@@H](O)[C@@H](C)/C=C/C=C(/C)C(=O)NC5=C(N6CCOCC6)C(=O)c6c(c(O)c(C)c7c6C(=O)[C@@](C)(O/C=C/[C@H](OC)[C@H]4C)O7)C5=O)CC3)CC2)c(F)cc2c(=O)c(C(=O)O)cn(C3CC3)c12 [Example 58]
10 | 0.063 to 31 | 0.25 to 62 (≈ 0.274 to 67.8 µM) | 0.002 to 1.95 (≈ 0.00219 to 2.13 µM) | CO[C@H]1/C=C/O[C@@]2(C)Oc3c(C)c(O)c4c(c3C2=O)C(=O)C(N2CCOCC2)=C(NC(=O)/C(C)=C\C=C\[C@H](C)[C@H](O)[C@@H](C)[C@@H](O)[C@@H](C)[C@H](OC(=O)NCCCCc2ccccc2)[C@@H]1C)C4=O [Example 34, 25-O-Desacetyl-(carbonyl-4-phenyl-butylamine) 3-morpholino rifamycin S]

Reference: patent US7250413B2, “C-25 carbamate rifamycin derivatives with activity against drug-resistant microbes” (Cumbre Pharmaceuticals Inc., priority 2004, dated 2007)
